Measurements reported in US20260130925A1, “METHODS FOR TREATING CANCER” (Genesis Molecular AI, Inc., priority 2022, published 2026).

Experiments:
PI3K H1047R = PI3K H1047R (Homo sapiens, UniProt P42336, H1047R); test: PI3K H1047R ADP-Glo (PI/PS); type: biochemical; parameters: PI3K H1047R ADP-Glo (PI/PS) IC50: H1047R Selectivity: reference not given here; settings: for IC50: PI/PS substrate
[1] = target: T1, PI3Kα H1047R in T47D cells (Homo sapiens, UniProt P42336, H1047R); test: PI3Kα cellular assay: T47D pAKT S473 HTRF; type: cell-based; settings: for T47D pAKT S473 HTRF IC50 (H1047R): T47D (H1047R) selectivity over SKBR3 (WT): T47D (H1047R) versus SKBR3 (WT) cells; for IC50: T47D cells (H1047R), serum starved, 1 hr compound, 20 ng/ml EGF 10 min
T1 construct: endogenous in cells; host or cells: T47D
T1 sequence (P42336 whole entry H1047R): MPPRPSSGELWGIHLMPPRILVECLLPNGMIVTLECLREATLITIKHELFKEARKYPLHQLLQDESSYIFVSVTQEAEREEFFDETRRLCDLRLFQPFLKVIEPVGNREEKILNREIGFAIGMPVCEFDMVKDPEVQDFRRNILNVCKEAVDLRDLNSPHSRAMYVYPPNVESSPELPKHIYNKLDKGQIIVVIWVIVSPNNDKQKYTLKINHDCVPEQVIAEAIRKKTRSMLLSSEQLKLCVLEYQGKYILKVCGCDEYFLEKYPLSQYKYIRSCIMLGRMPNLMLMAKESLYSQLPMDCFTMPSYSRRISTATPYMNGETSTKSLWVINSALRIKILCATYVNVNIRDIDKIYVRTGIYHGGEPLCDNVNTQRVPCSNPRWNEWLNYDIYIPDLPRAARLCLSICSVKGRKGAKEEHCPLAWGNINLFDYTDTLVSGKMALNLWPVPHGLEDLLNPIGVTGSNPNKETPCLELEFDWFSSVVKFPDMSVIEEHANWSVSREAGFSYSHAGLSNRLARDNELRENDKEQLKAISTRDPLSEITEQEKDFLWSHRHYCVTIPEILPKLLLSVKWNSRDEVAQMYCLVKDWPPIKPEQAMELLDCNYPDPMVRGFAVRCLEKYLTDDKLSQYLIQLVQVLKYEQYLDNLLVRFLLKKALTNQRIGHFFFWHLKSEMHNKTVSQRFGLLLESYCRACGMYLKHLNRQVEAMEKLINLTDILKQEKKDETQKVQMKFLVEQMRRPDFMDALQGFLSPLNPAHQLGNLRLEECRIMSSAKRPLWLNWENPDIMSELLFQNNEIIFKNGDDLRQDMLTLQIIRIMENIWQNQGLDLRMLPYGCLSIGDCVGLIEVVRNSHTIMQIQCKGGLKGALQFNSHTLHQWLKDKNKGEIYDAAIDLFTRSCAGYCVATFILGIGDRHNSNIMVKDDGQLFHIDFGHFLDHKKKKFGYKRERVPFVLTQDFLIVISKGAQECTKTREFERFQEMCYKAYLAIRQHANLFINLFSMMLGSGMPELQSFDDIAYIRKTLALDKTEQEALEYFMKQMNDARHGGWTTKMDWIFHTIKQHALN
T1 sequence (P27986 whole entry partner): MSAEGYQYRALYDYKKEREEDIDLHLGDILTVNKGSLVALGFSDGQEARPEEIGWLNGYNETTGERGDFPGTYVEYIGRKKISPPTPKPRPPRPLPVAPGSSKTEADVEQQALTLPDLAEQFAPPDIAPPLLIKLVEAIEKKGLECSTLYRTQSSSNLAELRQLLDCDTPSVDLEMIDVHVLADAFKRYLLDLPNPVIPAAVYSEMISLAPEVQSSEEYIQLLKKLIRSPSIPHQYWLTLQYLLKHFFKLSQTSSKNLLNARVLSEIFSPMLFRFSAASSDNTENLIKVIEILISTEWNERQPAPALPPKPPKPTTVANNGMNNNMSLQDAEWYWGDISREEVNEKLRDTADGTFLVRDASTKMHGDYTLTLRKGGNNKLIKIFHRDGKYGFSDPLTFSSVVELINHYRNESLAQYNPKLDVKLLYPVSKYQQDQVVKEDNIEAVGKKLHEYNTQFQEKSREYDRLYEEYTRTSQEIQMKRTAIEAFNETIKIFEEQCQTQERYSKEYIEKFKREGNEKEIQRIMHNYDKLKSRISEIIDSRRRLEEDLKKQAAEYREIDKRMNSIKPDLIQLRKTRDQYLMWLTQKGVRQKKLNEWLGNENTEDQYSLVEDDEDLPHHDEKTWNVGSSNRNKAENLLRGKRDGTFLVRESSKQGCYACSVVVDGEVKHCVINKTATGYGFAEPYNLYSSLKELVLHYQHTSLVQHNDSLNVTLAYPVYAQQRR
Protocol: PI3Kα cellular assay experimental procedure: SKBR3 or T47D cells are seeded in DMEM containing 10% FBS at 25 k cells/well into 96-well cell culture format. Cells are incubated overnight at 37° C. in a 5% CO2 incubator and the following day cell media is aspirated, adherent cells are washed 1× with room temperature PBS prior to serum-free media application. Cells are returned to 37° C. 5% CO2 incubator and incubated a further 16 hrs. Compounds are added to serum starved adherent cells with a top dose of 10,000 nM and 3× multiple dose reductions for a minimum dose of 0.5 nM diluted in DMSO. Cell/compound incubation continues for 1 hr in a 37° C., 5% CO2 incubator prior to 10 minute PIK3CA stimulation with 20 ng/ml EGF. Cells treated with 0.1% DMSO and 20 ng/mL EGF are employed as negative control, cells treated with 10 uM Alpelisib and 20 ng/mL EGF are employed as a positive control. After 10 mins, plates are removed from incubator and cells are lysed with buffer and shaking 45 minutes. 20 μL of lysate is transferred to an opti-384 plate and 2.5 μl of Phospho-AKT d2 antibody with 2.5 μl of Phospho-AKT Eu Cryptate solution in the detection buffer are added to each well. 384 well plate is left overnight at room temperature before reading HTRF on an Envision plate reader.

Chain of PI3K H1047R (P42336 whole entry H1047R): as the sequence (P42336 whole entry H1047R) above
Chain of PI3K H1047R (P27986 whole entry partner): as the sequence (P27986 whole entry partner) above

| SMILES | PI3K H1047R ADP-Glo (PI/PS) IC50: H1047R Selectivity (PI3K H1047R) | IC50 (PI3K H1047R) | T47D pAKT S473 HTRF IC50 (H1047R): T47D (H1047R) selectivity over SKBR3 (WT) [1] | IC50 [1] |
| --- | --- | --- | --- | --- |
| Cc1cc([C@@H](C)Nc2ccccc2C(=O)O)c2nc(-c3ccc(F)cc3)n(C)c(=O)c2c1 (single isomer, unassigned) [Compound 32] | A (A denotes >20-fold) | < 1000 nM | A (A denotes >20-fold) | < 750 nM |
| Cc1cc([C@H](C)Nc2ccccc2C(=O)O)c2nc(-c3ccc4c(c3)c(C)nn4C)n(C)c(=O)c2c1 (single isomer, unassigned) [Compound 33] | B (B denotes 20-fold≥value>5-fold) | < 1000 nM | A (A denotes >20-fold) | < 750 nM |
| Cc1cc(C(C)Nc2ccccc2C(=O)O)c2nc(-c3cc(C)c4oc(=O)[nH]c4c3)ncc2c1 (stereo not drawn) [Compound 5] |  | ≥ 10000 nM | B (B denotes 20-fold≥value>5-fold) | 750 to 2000 nM |
| Cc1cc([C@@H](C)Nc2ccccc2C(=O)O)c2nc(N3CCC(C)(C)CC3)ncc2c1 [Compound 8] | B (B denotes 20-fold≥value>5-fold) | < 1000 nM | A (A denotes >20-fold) | < 750 nM |
| Cc1cc(C(C)Nc2ccccc2C(=O)O)c2nc(-c3ccc(C4CC4)nc3)n(C)c(=O)c2c1 (stereo not drawn) [Compound 136] |  |  | A (A denotes >20-fold) | < 750 nM |
| Cc1cc([C@@H](C)Nc2ccccc2C(=O)O)c2nc(-c3cccnc3)n(C)c(=O)c2c1 [Compound 137] |  |  | A (A denotes >20-fold) | < 750 nM |
| Cc1cc([C@@H](C)Nc2ccccc2C(=O)O)c2nc(-c3ccc(C#N)nc3)n(C)c(=O)c2c1 [Compound 138] |  |  | A (A denotes >20-fold) | < 750 nM |
| Cc1cc(C(C)Nc2ccccc2C(N)=O)c2nc(-c3cccnc3)n(C)c(=O)c2c1 (stereo not drawn) [Compound 139] |  |  | B (B denotes 20-fold≥value>5-fold) | 750 to 2000 nM |
| Cc1cc([C@@H](C)Nc2ccccc2C(=O)O)c2nc(-c3cnc(C)c(Cl)c3)n(C)c(=O)c2c1 [Compound 140] |  |  | B (B denotes 20-fold≥value>5-fold) | < 750 nM |

Second part, the compound after the results:

| PI3K H1047R ADP-Glo (PI/PS) IC50: H1047R Selectivity (PI3K H1047R) | IC50 (PI3K H1047R) | T47D pAKT S473 HTRF IC50 (H1047R): T47D (H1047R) selectivity over SKBR3 (WT) [1] | IC50 [1] | SMILES |
| --- | --- | --- | --- | --- |
|  |  | B (B denotes 20-fold≥value>5-fold) | < 750 nM | Cc1cc([C@@H](C)Nc2ccccc2C(N)=O)c2nc(-c3cccnc3)n(C)c(=O)c2c1 [Compound 141] |
|  |  | A (A denotes >20-fold) | < 750 nM | Cc1cc([C@@H](C)Nc2ccccc2S(N)(=O)=O)c2nc(-c3cccnc3)n(C)c(=O)c2c1 [Compound 142] |
|  |  | A (A denotes >20-fold) | < 750 nM | Cc1cc([C@@H](C)Nc2ccccc2C(=O)O)c2nc(-c3ccnc(C#N)c3)n(C)c(=O)c2c1 [Compound 143] |
|  |  | B (B denotes 20-fold≥value>5-fold) | 750 to 2000 nM | Cc1cc([C@H](C)Nc2ccccc2C(=O)O)c2nc(N3Cc4ccccc4C3)nc(N3CC(O)C3)c2c1 [Compound 144] |
|  |  | B (B denotes 20-fold≥value>5-fold) | < 750 nM | Cc1cc([C@@H](C)Nc2ccccc2C(=O)O)c2nc(-c3ccnc(C4CC4)c3)n(C)c(=O)c2c1 [Compound 145] |
|  |  | A (A denotes >20-fold) | < 750 nM | Cc1cc([C@@H](C)Nc2ccccc2C(=O)O)c2nc(N3Cc4ccccc4C3)nc(OC3COC3)c2c1 [Compound 146] |
|  |  | C (C denotes ≤5-fold) | ≥ 2000 nM | CCOc1nc(N2Cc3ccccc3C2)nc2c([C@@H](C)Nc3ccccc3C(=O)O)cc(C)cc12 [Compound 147] |
